Key:
[1] = cited from earlier work
[2] = test system: Pseudomonas aeruginosa, Staphylococcus aureus, Candida albicans, Aspergillus brasiliensis, Escherichia coli; experiment: Antimicrobial Efficacy Test (AET) according to USP-NF monograph <51>; type: cell-based; conditions: dexamethasone eye drops, pH 5.0, USP-NF AET methodology
Procedure: For assessing the antimicrobial preservative agents, an Antimicrobial Efficacy Test (AET) is performed according to both USP-NF and EP standards • USP-NF: “American Pharmacopoeia” monograph <51> • EP: “European Pharmacopoeia” monograph […]
Those AETs consist in challenging the drug formulation containing an antimicrobial preservative agent at a certain concentration with specific microbial strains. The results are provided in microbial reduction expressed in logarithmic units. The acceptance criteria are specific of each standard (either US or EU) according to the table below. For being declared as passing the test, all the criteria must be achieved over the 28 days period. If at least one criterion is missed, then the whole test is declared failed.
AET acceptance criteria (microbial burden reduction in Log units)
Based on current knowledge those three microbial challenge tests (AETs), also known in the past as preservative efficacy tests (PET), are known to be more or less difficult to pass. EP/A test is known to be the most difficult one to pass. EB/B is less difficult than EB/A. USP-NF test is usually less difficult or sometimes equivalent to EP/B.

Structure (SMILES)	Water solubility (at 20° C.) [1]	Temperature Stability ([1]; in words)	minimum effective dose of potassium sorbate used as an antimicrobial agent [2] [% w/v]	solubility in water ([1]; in words)	Log P(octanol/water) ([1]; octanol/water)
CCCCOC(=O)c1ccc(O)cc1 [BPB, butyl paraben]	Low (0.25%)	Yes			
C/C=C/C=C/C(=O)[O-].[K+] [KS, Potassium sorbate]	Good (>50%)	Medium	0.235		
C/C=C/C=C/C(=O)O [SA, (2E,4E)-hexa-2,4-dienoic acid]	Low (0.15%)	Low		slightly soluble in water	1.3

— patent publication US20240390515A1, “MULTIDOSE OPHTHALMIC COMPOSITIONS” (Oculis Operations Sàrl, priority 2022, published 2024)
